Patent US6544541B1, “Devices and compounds for treating arterial restenosis” (Cardiovascular Solutions, Inc., priority 1999, dated 2003)

Legend:
porcine femoral artery = assay: balloon angioplasty of the porcine femoral artery in vivo; parameters: species or system pigs; conditions: 14 days
Excerpt: To test the effectiveness of MIBG under in vivo conditions, this compound was applied to the femoral artery after balloon angioplasty. This model provided a means of testing both MIBG and the method of application. Specifically, male castrated farm pigs (25-30 kg) were anaesthetized and maintained on isoflurane throughout the procedure. With the pig in a supine position, the left femoral artery was exposed from the bifurcation of the femoral and superficial femoral arteries to the point of insertion of the femoral artery into the groin. A mixture of nitroglycerin and papaverine was applied to the vessel and the area was covered with a saline-soaked sponge to keep the tissues moist. The right femoral artery was also exposed, treated and covered with a sponge. The left femoral was then clamped at both groin insertion (proximal) and bifurcation (distal) points, and an arteriotomy made at the bifurcation. The balloon (6.0×20 mm) was inserted through the arteriotomy in a retrograde manner (i.e. toward the groin) to a position 20 mm from the arteriotomy and the proximal clamp removed. The balloon was inflated for 1 minute, deflated and carefully removed, and the arteriotomy was closed with 6.0 ProleneTM suture. MIBG in combination with a biocompatible glue, in this example, Tisseel®, was applied to the surface of the vessel extending from the arteriotomy to the proximal region past the site of balloon inflation. The fibrin glue ensured that MIBG slowly diffused into the vessel. Furthermore, the fibrin glue helps to retain MIBG at the site for several days. The right femoral was handled as described above. […] The extent of restenosis was subsequently monitored by morphometry. […] Digital images were captured with a DAGE-MTI CCD camera and analyzed with SigmaScan Software. The neointimal and medial areas are quantified and used to calculate the neointimal index: neointimal area/medial area. […] Even though the vehicle cannot be detected after 14 days, we conclude that it remains for the minimum period necessary.

L6 myoblasts = assay: L6 myoblast differentiation; format: cell-based; conditions: 25 μM; 2.5% horse serum; 4 days; FIG. 32
[1] = test system: smooth muscle cells derived from human arterial conduits; assay: DNA synthesis and cytotoxicity in human smooth muscle cells; conditions: FIG. 26A
H4IIE cells = assay: lactate dehydrogenase (LDH) release toxicity assay; format: cell-based; conditions: 96 hours; FIG. 5
Experimental: To address the issue of MIBG toxicity, lactate dehydrogenase (LDH) release was measured after incubation with MIBG or MIBA. Quiescent H4IIE cells were prepared in 96-well dishes and treated with various concentrations of either MIBG or MIBA for 96 hours. To quantify the release of LDH from the cells, which only occurs if the cells are damaged or killed by the treatment, 100 μl of culture medium was transferred to a fresh dish. To this was added 100 μl of dye/catalyst mixture (Boehringer Mannheim cytotoxicity detection kitTM), and the samples were subsequently incubated for 30 minutes at 37° C. Absorbance of the solution was monitored at 490 nm. The colour intensity indicates the relative LDH content in the test samples. […] As a consequence, it is speculated that changes in LDH release may be coupled to non-toxic and reversible alterations in mitochondrial metabolism or membrane integrity as a result of MIBG treatment.

H4IIE hepatoma cells [2] = assay: MTT staining of viable cells (cell number); format: cell-based
Experimental: In this assay, H4IIE cells are plated on 96-well dishes, and incubated in standard growth medium. Separate plates were prepared for comparing the effects of MIBG after 2 or 4 days. At those time points, 200 μl of 5 mg/ml MTT was added to each well, and the cells were incubated an additional 4 hours. The medium was removed and cells were treated with acidified isopropanol and the absorbance read at 570 nm. Increased absorbance is indicative of increases in cell number.

H4IIE hepatoma cells [3] = assay: DNA synthesis (3H-thymidine incorporation) in H4IIE cells; format: cell-based
Experimental: Incorporation of uridine or thymidine was used to define the change in rate of […] synthesis, respectively, in response to a mitogen such as insulin. Specifically, quiescent H4IIE cells were prepared by placing the cultures (in 24-well dishes) into serum-free a-minimal essential medium for 3 days. It is of note that the normal growth media for H4IIE cells is α-MEM containing 10% fetal bovine serum (FBS). After reaching quiescence, the cells were stimulated with 1 μM insulin and incubated for either 6 hours or 24 hours in the presence of 1 μCi/ml ^3H-uridine or ^3H-thymidine, respectively. Cells were subsequently lysed with detergent and the nucleic acids precipitated with 5% trichloroacetic acid. The precipitated material was collected on glass fibre filters and the radioactive content measured by scintillation counting. […] Furthermore, while complete inhibition of DNA synthesis by MIBG is obtained at approximately 20 μM, higher concentrations decrease basal DNA synthesis below control levels.

meta-iodobenzylguanidine [MIBG]
restenosis after balloon angioplasty (porcine femoral artery; 25 mM in a 1.0 ml Tisseel bolus applied to vessel surface, FIGS. 20 and 21): effectively prevents restenosis
medial fibrosis or cell loss (porcine femoral artery; 25 mM in a 1.0 ml Tisseel bolus, FIG. 20): no evidence of medial fibrosis
effect on L6 myoblast differentiation (L6 myoblasts): inhibits differentiation of L6 myoblasts at an early stage
DNA synthesis and cytotoxicity compared with porcine cells [1]: comparable effects in both porcine and human tissues
concentration at which increased LDH release is detectable (H4IIE cells): 50 µM
effect on cell number (H4IIE hepatoma cells [2]; 20 μM, 2 or 4 days, FIG. 3): effective in preventing increases in cell number
MTT staining (H4IIE hepatoma cells [2]; 200 μM, up to 96 hours): 60 % of control values
concentration for complete inhibition of DNA synthesis (H4IIE hepatoma cells [3]; 1 μM insulin, 24 hours, FIG. 2): approximately 20 μM
inhibition of DNA synthesis (thymidine incorporation) (H4IIE hepatoma cells [3]; H4IIE cells): inhibits DNA synthesis
